Values joined by “and” are separate entries in the source; they are usually repeats but may differ in a detail not shown here. Equal entries are not always repeated.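 Protocol summary: plate cells (96-well), add compound at 5 concentrations, incubate 48 h, interpolate endpoints linearly. GI50 is the concentration that inhibits growth by half. Definition used: TGI = concentration required for complete inhibition of growth.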

The record followed here is PubChem BioAssay (NCI).

Among the test systems are OVCAR-4 ovarian; XF 498 CNS; T-47D breast; IGROV1 ovarian; DMS 273 small cell lung; KM20L2 colon; COLO 205 colon; SW-620 colon; HOP-92 NSCLC; NCI-H226 lung.
What all share (assay): NCI-60 cell line screen, 48 h

Take `CCN(CC)CCn1ccc(=O)c2cc3c(=O)ccn(CCN(CC)CC)c3c(C)c21`: the TGI in the test on OVCAR-4 ovarian came to 9.43 µM; with XF 498 CNS, 21.4 µM; in the test with T-47D breast it was 50 µM; with IGROV1 ovarian, 22 µM; with DMS 273 small cell lung, 15.1 µM; in the test on KM20L2 colon it was 15.4 µM. In addition, the TGI with COLO 205 colon was determined as 15.3 µM; in the test on SW-620 colon, 5.26 µM; in the test with HOP-92 NSCLC it was 19.5 µM; in the test with NCI-H226 lung, 23.8 µM.
Consider `CNS(=O)(=O)NN(C)S(=O)(=O)c1ccc(F)cc1`, for which the TGI in the test with OVCAR-4 ovarian, in the test with XF 498 CNS, in the test with IGROV1 ovarian, in the test on DMS 273 small cell lung, in the test on KM20L2 colon and in the test on COLO 205 colon was > 100 µM in each case. For the same compound, the TGI in the test on SW-620 colon, in the test with HOP-92 NSCLC and in the test on NCI-H226 lung was > 100 µM each time.
For `CSC1CC2C(CC1(C)O)C2(C)C` (stereo not drawn), the TGI with OVCAR-4 ovarian is > 100 µM; with XF 498 CNS, 79.1 µM and > 100 µM; with IGROV1 ovarian, > 100 µM; in the test on DMS 273 small cell lung it was > 100 µM; with KM20L2 colon it was > 100 µM; in the test with COLO 205 colon it was > 100 µM. The TGI in the test with SW-620 colon, in the test on HOP-92 NSCLC and with NCI-H226 lung was > 100 µM throughout. Besides, the GI50 in the test on XF 498 CNS is 16.4 µM and > 100 µM; in the test on HOP-92 NSCLC, 25.5 µM and > 100 µM; in the test on NCI-H226 lung it was 38.5 µM and > 100 µM.
With `Cc1ccc(-c2c(N)[n+]([O-])c3ccccc3[n+]2[O-])cc1`, the TGI with OVCAR-4 ovarian came out at 33.1 µM; in the test with XF 498 CNS, 19.5 µM; with IGROV1 ovarian, 29.8 µM; with DMS 273 small cell lung, 29.5 µM; with KM20L2 colon it was 38.9 µM; in the test with COLO 205 colon it was 34.7 µM. For the same compound, the TGI with SW-620 colon was 23.3 µM; in the test with HOP-92 NSCLC, > 100 µM; with NCI-H226 lung, 39.6 µM.
For the compound `O=C(c1ccc(F)cc1)c1cccc(C(=O)c2ccc(F)cc2)n1`, the TGI was > 100 µM in the test with OVCAR-4 ovarian; > 59.7 µM in the test with XF 498 CNS; > 100 µM in the test on T-47D breast; 79.3 µM with IGROV1 ovarian; > 100 µM with DMS 273 small cell lung; > 100 µM with KM20L2 colon. Moreover, the TGI with COLO 205 colon is > 100 µM; with SW-620 colon it was > 100 µM; in the test on HOP-92 NSCLC it was 44.4 µM; in the test with NCI-H226 lung, > 78 µM.
Take `Cc1cc(N(CCC#N)S(=O)(=O)c2ccccc2)ccc1/C=C1N=C(/C=C/c2ccccc2)OC\1=O`: the TGI with XF 498 CNS, with IGROV1 ovarian, in the test with DMS 273 small cell lung, in the test with KM20L2 colon, in the test on COLO 205 colon and in the test with SW-620 colon was > 100 µM throughout. The TGI with NCI-H226 lung is > 100 µM.
On to `O=c1c2c([nH]c3cc4c(cc13)OCO4)-c1ccccc1CC2`, for which the TGI with OVCAR-4 ovarian, in the test with XF 498 CNS, in the test on IGROV1 ovarian, in the test on DMS 273 small cell lung, in the test on KM20L2 colon and in the test with COLO 205 colon was > 100 µM throughout. In addition, the TGI with SW-620 colon and in the test on NCI-H226 lung was > 100 µM in each case.
On to `COC(=O)c1csnn1`, for which the TGI in the test with XF 498 CNS, in the test with IGROV1 ovarian, with DMS 273 small cell lung, in the test on KM20L2 colon, in the test on COLO 205 colon and in the test with SW-620 colon was > 100 µM in each case. Further, in the test with NCI-H226 lung, the TGI is > 100 µM.
With `CCCc1[nH]nc(CCC(=O)N(Cc2ccccc2)Cc2ccccc2)c1CC`, the TGI with OVCAR-4 ovarian, in the test on XF 498 CNS, with IGROV1 ovarian, with DMS 273 small cell lung, in the test with KM20L2 colon and with COLO 205 colon was > 100 µM throughout. For the same compound, the TGI with SW-620 colon and in the test on NCI-H226 lung was > 100 µM throughout.
Take `CNC(=O)OCc1nc(SC2CCCCO2)n(C)c1COC(=O)NC` (stereo not drawn): the TGI with OVCAR-4 ovarian, with XF 498 CNS, in the test on IGROV1 ovarian, with DMS 273 small cell lung, in the test with KM20L2 colon and in the test with COLO 205 colon was > 100 µM throughout. For the same compound, the TGI in the test on SW-620 colon, in the test on HOP-92 NSCLC and in the test with NCI-H226 lung was > 100 µM throughout.
For `Cc1ccncc1.[O]=[Ge].[O]=[Ge].[O]=[Ge].[O]=[Ge].[O]=[Ge].[O]=[Ge][OH].[O]=[Ge][OH]`, the GI50 with OVCAR-4 ovarian, with XF 498 CNS, in the test with IGROV1 ovarian, with DMS 273 small cell lung, in the test with KM20L2 colon and in the test with SW-620 colon was > 100 µM each time. The GI50 in the test on HOP-92 NSCLC and in the test with NCI-H226 lung was > 100 µM in each case. In addition, the TGI in the test with OVCAR-4 ovarian, in the test on XF 498 CNS, in the test with IGROV1 ovarian, in the test with DMS 273 small cell lung, in the test on KM20L2 colon and with SW-620 colon was > 100 µM each time. The TGI with HOP-92 NSCLC and in the test on NCI-H226 lung was > 100 µM throughout.
Take `COc1nc(NC2OCC(OC(C)=O)C(OC(C)=O)C2OC(C)=O)c(N=CC=Nc2c(NC3OCC(OC(C)=O)C(OC(C)=O)C3OC(C)=O)nc(OC)n(C)c2=O)c(=O)n1C` (stereo not drawn): the TGI with OVCAR-4 ovarian is > 100 µM; in the test with XF 498 CNS, 95.9 µM; in the test on IGROV1 ovarian, > 100 µM; in the test on DMS 273 small cell lung, > 100 µM; with KM20L2 colon, > 100 µM; in the test with COLO 205 colon, > 100 µM. In addition, the TGI with SW-620 colon and in the test on HOP-92 NSCLC was > 100 µM throughout.
`CC1CCCCc2nc3c(c(=O)n21)CCCC3` (stereo not drawn): the TGI in the test on OVCAR-4 ovarian, in the test on XF 498 CNS, in the test on IGROV1 ovarian, with DMS 273 small cell lung, in the test with KM20L2 colon and in the test with COLO 205 colon was > 100 µM throughout. Further, the TGI in the test on SW-620 colon, in the test with HOP-92 NSCLC and in the test with NCI-H226 lung was > 100 µM in each case.
Turning to `CCCCCCCCCCCCOC(=S)NCCCC`, the TGI in the test on OVCAR-4 ovarian amounted to 99.7 µM; in the test on XF 498 CNS, 31.9 µM; in the test on IGROV1 ovarian it was 81.1 µM; in the test with DMS 273 small cell lung, 41 µM; in the test with KM20L2 colon, 39.5 µM; in the test on SW-620 colon, 35.5 µM. The TGI in the test on HOP-92 NSCLC came out at 46.9 µM; in the test on NCI-H226 lung, 45.1 µM.
On to `CC(C)C(=O)Nc1nc2nc[nH]c2c(=O)[nH]1`, for which the TGI with OVCAR-4 ovarian, in the test on XF 498 CNS, in the test on IGROV1 ovarian, in the test on DMS 273 small cell lung, in the test on KM20L2 colon and in the test with COLO 205 colon was > 100 µM each time. The TGI with SW-620 colon, in the test with HOP-92 NSCLC and in the test with NCI-H226 lung was > 100 µM throughout.
For the compound `COc1ccccc1NC(=O)CC(=O)N1N=C(C)C(N=Nc2ccc(S(N)(=O)=O)cc2)C1=O` (stereo not drawn), the TGI in the test on OVCAR-4 ovarian, in the test on XF 498 CNS, in the test on IGROV1 ovarian, in the test with DMS 273 small cell lung, in the test on KM20L2 colon and in the test on COLO 205 colon was > 100 µM in each case. The TGI in the test on SW-620 colon, in the test on HOP-92 NSCLC and in the test with NCI-H226 lung was > 100 µM each time.
For `CCOC(=O)C1=C(C)N(Cc2ccccc2)C(C)=C(C(=O)OCC)C1c1ccccc1O`, the TGI with OVCAR-4 ovarian is > 100 µM; with XF 498 CNS it was 51.3 µM; in the test on IGROV1 ovarian it was > 100 µM; with DMS 273 small cell lung, > 100 µM; with KM20L2 colon, > 100 µM; in the test with COLO 205 colon it was 31.4 µM. Further, the TGI in the test with SW-620 colon was > 100 µM; with HOP-92 NSCLC, 50.6 µM; with NCI-H226 lung, 80.4 µM.
`C=C1C(=O)O[C@H]2[C@H]1[C@H](OC(=O)/C(C)=C\C)CC(=C)[C@@H]1[C@H](O)[C@H]3O[C@@]3(C)[C@@]12O`: the TGI in the test on OVCAR-4 ovarian, in the test with XF 498 CNS, in the test with IGROV1 ovarian, with DMS 273 small cell lung, in the test on KM20L2 colon and in the test on COLO 205 colon was > 100 µM in each case. Besides, the TGI in the test on SW-620 colon and with HOP-92 NSCLC was > 100 µM throughout.
Turning to `O=C(O)c1ccc([Se][Se]c2ccc(C(=O)O)cc2)cc1`, the TGI with OVCAR-4 ovarian was 49.1 µM; in the test with XF 498 CNS, 81.1 µM; with IGROV1 ovarian, 71.1 µM; in the test with DMS 273 small cell lung it was 49.7 µM; in the test with KM20L2 colon, > 100 µM; with COLO 205 colon, 74 µM. The TGI was > 100 µM in the test on SW-620 colon and 76.5 µM with NCI-H226 lung.
